Laboratory results published in patent publication US20170291905A1, “ARGININE […] INHIBITORS AND USES THEREOF” (Epizyme, Inc., priority 2014, published 2017).
Where a name gives a salt, the structure may show the parent alone.

Molecular target: full-length human PRMT8 isoform 1 (Homo sapiens, UniProt Q9NR22)
Assay: PRMT8 biochemical assay (3H-SAM Flashplate, histone H4 31-45 peptide)
Conditions: 1.5 nM PRMT8, 30 min preincubation, 150 nM peptide
Source text: S-adenosylmethionine (SAM), S-adenosylhomocysteine (SAH), bicine, Tween20, dimethylsulfoxide (DMSO), bovine skin gelatin (BSG), isopropyl-β-D-thiogalactopyranoside (IPTG), and Tris(2-carboxyethyl)phosphine hydrochloride solution (TCEP) were purchased from Sigma-Aldrich at the highest level of purity possible. ^3H-SAM was purchase from American Radiolabeled Chemicals with a specific activity of 80 Ci/mmol. 384-well streptavidin Flashplates were purchased from PerkinElmer.
Peptide representative of human histone H4 residues 31-45 was synthesized with an N-terminal linker-affinity tag motif and a C-terminal amide cap by 21st Century Biochemicals. The peptide was purified by high-performance liquid chromatography (HPLC) to greater than 95% purity and confirmed by liquid chromatography mass spectrometry (LC-MS). The sequence was Biot-Ahx-[…]-amide (SEQ ID NO.:8).
The resulting construct encodes an N-terminal GST tag and a thrombin cleavage sequence
E. coli (BL21(DE3) Gold, Stratagene) made competent by the CaCl2 method were transformed with the PRMT8 construct and ampicillin selection. Protein over-expression was accomplished by growing the PRMT8 expressing E. coli clone and inducing expression with 0.3 mM IPTG at 16° C. The culture was grown for 12 hours, harvested by centrifugation, and stored at −80° C. for purification.
GST-tagged PRMT8 was eluted with 50 mM Tris, 2 mM glutathione, pH 7.8. Pooled fractions were cleaved by thrombin (10U) and dialysed in buffer A. GST was removed by reloading the cleaved protein sample onto glutathione sepharose column and PRMT8 was collected in the flow-through fractions. PRMT8 was purified further by ceramic hydroxyapatite chromatography. The column was washed with 50 mM phosphate buffer, 100 mM NaCl, 5% glycerol, 5 mM […], pH 7.8 and PRMT8 was eluted by 100 mM phosphate in the same buffer. Protein was concentrated and buffer was exchanged to 50 mM Tris, 300 mM NaCl, 10% glycerol, 5 mM β-mercaptoethanol, pH 7.8 by ultrafiltration. The purity of recovered protein was 89%.
General Procedure for PRMT8 Enzyme Assays on Peptide Substrates.
The assays were all performed in a buffer consisting of 20 mM Bicine (pH=7.6), 1 mM TCEP, 0.005% BSG, and 0.002% Tween 20, prepared on the day of use. Compounds in 100% DMSO (1 ul) were spotted into a polypropylene 384-well V-bottom plates (Greiner) using a Platemate Plus outfitted with a 384-channel head (Thermo Scientific). DMSO (1 ul) was added to Columns 11, 12, 23, 24, rows A-H for the maximum signal control and 1 ul of SAH, a known product and inhibitor of PRMT8, was added to columns 11, 12, 23, 24, rows I-P for the minimum signal control. A cocktail (40 ul) containing the PRMT8 enzyme was added by Multidrop Combi (Thermo-Fisher). The compounds were allowed to incubate with PRMT8 for 30 min at room temperature, then a cocktail (10 ul) containing ^3H-SAM and peptide was added to initiate the reaction (final volume=51 ul). The final concentrations of the components were as follows: PRMT8 was 1.5 nM, ^3H-SAM was 50 nM, non-radiolabeled SAM was 550 nM, peptide was 150 nM, SAH in the minimum signal control wells was 1 mM, and the DMSO concentration was 2%. The assays were stopped by the addition of non-radiolabeled SAM (10 ul) to a final concentration of 400 uM, which dilutes the ^3H-SAM to a level where its incorporation into the peptide substrate is no longer detectable. 50 ul of the reaction in the 384-well polypropylene plate was then transferred to a 384-well Flashplate and the biotinylated peptides were allowed to bind to the streptavidin surface for at least 1 hour before being washed once with 0.1% Tween20 in a Biotek ELx405 plate washer. The plates were then read in a PerkinElmer TopCount plate reader to measure the quantity of ^3H-labeled peptide bound to the Flashplate surface, measured as disintegrations per minute (dpm) or alternatively, referred to as counts per minute (cpm). […]

full-length human PRMT8 isoform 1, sequence (Q9NR22 whole entry, canonical isoform): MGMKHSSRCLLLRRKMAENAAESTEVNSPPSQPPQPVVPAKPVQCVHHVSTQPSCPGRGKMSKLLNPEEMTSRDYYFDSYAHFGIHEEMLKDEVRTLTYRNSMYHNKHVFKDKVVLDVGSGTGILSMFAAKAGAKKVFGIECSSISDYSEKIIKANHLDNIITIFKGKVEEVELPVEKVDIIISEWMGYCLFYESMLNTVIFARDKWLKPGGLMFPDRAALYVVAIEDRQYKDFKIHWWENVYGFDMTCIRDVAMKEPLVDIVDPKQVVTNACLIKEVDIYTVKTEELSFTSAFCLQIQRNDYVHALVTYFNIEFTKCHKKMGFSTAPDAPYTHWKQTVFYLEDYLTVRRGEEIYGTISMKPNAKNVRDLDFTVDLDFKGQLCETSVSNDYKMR

| Structure (SMILES) | IC50 [nM] |
| --- | --- |
| CNCCN(C)Cc1c[nH]nc1C1CCC(C)(C)[C@H](COCCCOC)C1 (stereo partly drawn) [compound 30, {2-[({3-[(3R)-3-[(3-methoxypropoxy)methyl]-4,4-dimethylcyclohexyl]-1H-pyrazol-4-yl}methyl)(methyl)amino]ethyl}(methyl)amine] | 187 |
| CNCCN(C)Cc1c[nH]nc1[C@H]1CC[C@@]2(CCCOC2)CC1 [compound 5, N1-((3-((6r,9r)-2-oxaspiro[5.5]undecan-9-yl)-1H-pyrazol-4-yl)methyl)-N1,N2-dimethylethane-1,2-diamine] | 17.7 |
| CNCCN(C)Cc1c[nH]nc1[C@@H]1CC[C@@H](OCCCOC)C2(CCCC2)C1 (racemic) [compound 26, N1-((3-((7R,10R)-10-(3-methoxypropoxy)spiro[4.5]decan-7-yl)-1H-pyrazol-4-yl)methyl)-N1,N2-dimethylethane-1,2-diamine] | 67.6 |
| CNCCN(C)Cc1c[nH]nc1C1C[C@H](C(=O)NCCOC)C(C)(C)[C@H](C(=O)NCCOC)C1 (stereo partly shown) [compound 13] | > 10000 |
| CNCCN(C)Cc1n[nH]cc1[C@H]1CC[C@@]2(CC1)CC(C)(C)CO2 [compound 115] | 16.2 |
| CNCCN(C)Cc1c[nH]nc1C1CCC2(CC1)CC(C)(C)OC2=O (stereo not shown) [compound 125] | 15.7 |
| CNCCN(C)Cc1c[nH]nc1[C@H]1CC[C@@H](COCC(F)(F)F)CC1 [compound 23, N1,N2-dimethyl-N1-((3-((1s,4s)-4-((2,2,2-trifluoroethoxy)methyl)cyclohexyl)-1H-pyrazol-4-yl)methyl)ethane-1,2-diamine] | 91.8 |
| CCN(C)C(=O)C1CC(c2n[nH]cc2CN(C)CCNC)CC(C(=O)NCCC(C)C)C1(C)C (stereo not shown) [compound 14, N1-ethyl-N3-isopentyl-N1,2,2-trimethyl-5-(4-((methyl(2-(methylamino)ethyl)amino)methyl)-1H-pyrazol-3-yl)cyclohexane-1,3-dicarboxamide] | > 10000 |
| CCOC[C@@H]1CC(c2n[nH]cc2CN(C)CCNC)CCC1(C)C (stereo partly drawn) [compound 31, {2-[({3-[(3R)-3-(ethoxymethyl)-4,4-dimethylcyclohexyl]-1H-pyrazol-4-yl}methyl)(methyl)amino]ethyl}(methyl)amine] | 325 |
| CNCCN(C)Cc1n[nH]cc1[C@H]1CC[C@]2(CC1)CC(C)(C)CO2 [compound 116] | 31.8 |
| CNCCN(C)Cc1cn(C)nc1C1CCC(C)(C)[C@@H](C(=O)NCC(C)C)C1 (stereo partly shown) [compound 25] | 2790 |
| CCOCC1(COCC)CCC(c2n[nH]cc2CN(C)CCN(C)C)CC1 [compound 121] | 58.2 |
| CCOCC1(COCC)CC=C(c2n[nH]cc2CN(C)CCNC)CC1 [compound 60] | 22.5 |
| CNCCN(C)Cc1c[nH]nc1[C@H]1CC[C@@]2(CCN(CCC(C)C)C2=O)CC1 [compound 11, (5r,8r)-2-isopentyl-8-(4-((methyl(2-(methylamino)ethyl)amino)methyl)-1H-pyrazol-3-yl)-2-azaspiro[4.5]decan-1-one] | 10.2 |
| CCC1(CC)C[C@]2(CC[C@H](c3n[nH]cc3CN(C)CCNC)CC2)OC1=O [compound 33, (5s,8s)-3,3-diethyl-8-(4-((methyl(2-(methylamino)ethyl)amino)methyl)-1H-pyrazol-3-yl)-1-oxaspiro[4.5]decan-2-one] | 95.8 |
| CCC1(CC)C[C@]2(CC[C@@H](c3n[nH]cc3CN(C)CCNC)CC2)OC1=O [compound 34, (5r,8r)-3,3-diethyl-8-(4-((methyl(2-(methylamino)ethyl)amino)methyl)-1H-pyrazol-3-yl)-1-oxaspiro[4.5]decan-2-one] | 146 |
| CNCCN(C)Cc1c[nH]nc1[C@H]1CC[C@]2(CCCCO2)CC1 [compound 127, methyl([2-[methyl([3-[(6s,9r)-1-oxaspiro[5.5]undecan-9-yl]-1H-pyrazol-4-yl]methyl)amino]ethyl])amine bistrifluoroacetic acid salt] | 16.2 |
| CNCCN(C)Cc1c[nH]nc1C1=CCC(CF)(CF)CC1 [compound 15, N-((3-(4,4-bis(fluoromethyl)cyclohex-1-en-1-yl)-1H-pyrazol-4-yl)methyl)-N1,N2-dimethylethane-1,2-diamine] | 15.3 |
| CNCCN(C)Cc1c[nH]nc1C1=CCC(COCC(F)(F)F)CC1 (stereo not shown) [compound 16, N1,N2-dimethyl-N1-((3-(4-((2,2,2-trifluoroethoxy)methyl)cyclohex-1-en-1-yl)-1H-pyrazol-4-yl)methyl)ethane-1,2-diamine] | 26.4 |
| CNCCN(C)Cc1c[nH]nc1C1CCC(OCCCOC)C2(CCCC2)C1 (mixture of isomers) [compound 19, N1-((3-(10-(3-methoxypropoxy)spiro[4.5]decan-7-yl)-1H-pyrazol-4-yl)methyl)-N1,N2-dimethylethane-1,2-diamine dihydrochloride] | 30.1 |

Other lines, results leading:

| IC50 [nM] | Structure (SMILES) |
| --- | --- |
| 18.5 | CNCCN(C)Cc1ncsc1[C@H]1CC[C@@]2(CC1)CC(C)(C)CO2 [compound 83] |
| 20.7 | CNCCNCc1c[nH]nc1[C@H]1CC[C@@]2(CC1)CC(C)(C)CO2 [compound 28, N1-((3-((5s,8s)-3,3-dimethyl-1-oxaspiro[4.5]decan-8-yl)-1H-pyrazol-4-yl)methyl)-N2-methylethane-1,2-diamine] |
| 17.5 | Cc1[nH]nc(C2CCC3(CC2)CC(C)(C)CO3)c1CN(C)CCN (stereo not shown) [compound 59] |
| 21.3 | CNCCN(C)Cc1c[nH]nc1[C@H]1CC[C@@]2(CC1)COC(C)(C)C2 [compound 126, N1-((3-((5r,8r)-3,3-dimethyl-2-oxaspiro[4.5]decan-8-yl)-1H-pyrazol-4-yl)methyl)-N1,N2-dimethylethane-1,2-diamine] |
| 1180 | CNCCN(C)Cc1nccn1[C@H]1CC[C@]2(CC1)CC(C)(C)CO2 [compound 91] |
| 3480 | CNCCN(C)Cc1nncn1[C@H]1CC[C@@]2(CC1)CC(C)(C)CO2 [compound 68] |
| 49 | CNCCN(C)Cc1nc(C)sc1[C@H]1CC[C@]2(CC1)CC(C)(C)CO2 [compound 99] |
| 4320 | CNCCN(C)Cc1nnc(C)n1[C@H]1CC[C@@]2(CC1)CC(C)(C)CO2 [compound 71] |
| 9.08 | CNCCN(C)Cc1scnc1[C@H]1CC[C@@]2(CC1)CC(C)(C)CO2 [compound 62] |
| 38.9 | CN(CCN)Cc1nn(C)cc1[C@H]1CC[C@]2(CC1)CC(C)(C)CO2 [compound 102] |
| 32.7 | CNCCN(C)Cc1c(C)[nH]nc1[C@H]1CC[C@@]2(CC1)CC(C)(C)CO2 [compound 57] |
| 30.9 | CNCCN(C)Cc1nn(C)cc1[C@H]1CC[C@@]2(CC1)CC(C)(C)CO2 [compound 81] |
| 68 | CNCCN(C)Cc1c(C)noc1[C@H]1CC[C@]2(CC1)CC(C)(C)CO2 [compound 114] |
| > 10000 | CNCCN(C)Cc1cnnn1[C@H]1CC[C@@]2(CC1)CC(C)(C)CO2 [compound 65] |
| 23.1 | Cc1[nH]nc([C@H]2CC[C@]3(CC2)CC(C)(C)CO3)c1CN(C)CCN [compound 52, N1-((3-((5r,8r)-3,3-dimethyl-1-oxaspiro[4.5]decan-8-yl)-5-methyl-1H-pyrazol-4-yl)methyl)-N1-methylethane-1,2-diamine] |
| 12.1 | CN(CCN)Cc1nn(C)cc1[C@H]1CC[C@@]2(CC1)CC(C)(C)CO2 [compound 80] |
| > 10000 | CNCCN(C)Cc1nnc(C)n1[C@H]1CC[C@]2(CC1)CC(C)(C)CO2 [compound 93] |
| 526 | CNCCN(C)Cc1c(Cl)ncn1[C@H]1CC[C@]2(CC1)CC(C)(C)CO2 [compound 97] |
| 27.7 | CNCCN(C)Cc1nc(C)sc1[C@H]1CC[C@@]2(CC1)CC(C)(C)CO2 [compound 77] |
| 3680 | CNCCN(C)Cc1cncn1[C@H]1CC[C@]2(CC1)CC(C)(C)CO2 [compound 98] |
